The text below walks through data of US20030180924A1, “Formulation of certain pyrazolo [3,4,-d] pyrimidines as kinase modulators” (priority 2002, published 2003).

Data set [1] can be described thus: Bioavailability testing, IV treatment (whole blood, LC/MS). Type of data set: in vivo. Particulars: male CD-1 mice; for AUC: whole blood; for clearance / Vd: mouse, in vivo; for Vd: read-out: Vdss. The protocol:
(§1) Compositions comprising the free base of 1-Na-PP1 and 1-NM-PP1 (Control) and the hydrochloride salt of 1-Na-PP1 and 1-NM-PP1 formulated with Vitamin E TPGS are administered to male CD-1 mice intraperitoneally (IP) and intravenously (IV). Whole blood samples were collected from three animals per time point and prior via cardiac puncture into EDTA tubes and placed on wet ice. Samples were analyzed after drying and predissolution in 0.1:20:80 formic acid:methanol:water by liquid chromatography/mass spectrometry using an Xterra C182.5 micromenter particle size analytical column (15 mm×2.1 mm).

Data set [2] in a line: Bioavailability testing, IP treatment (whole blood, LC/MS). It counts as in vivo. Particulars: 0.793 mg/Kg, male CD-1 mice; for AUC / Cmax: whole blood; for Tmax / bioavailability / half-life / Cmax: mouse, in vivo; for half-life: read-out: T½ (converted). The protocol: as §1

Where two headings read alike, the source gives them in different places.

As to `CC(C)(C)n1nc(Cc2cccc3ccccc23)c2c(N)ncnc21` [1-NM-PP1 (Control)], in data set [1] (0.793 mg/Kg), the AUC/Dose came to 0.13 ng·h/mL/µg/kg; the T½ worked out at 23.4 min; the AUC (commonly concentration integrated over time) worked out at 37.08 ng·h/mL; the clearance (as a rule, the rate of elimination divided by the concentration) was 130 mL/min/kg. Further, the Vd in data set [1] (0.793 mg/Kg) stood at 4.1 L/kg. In addition, in data set [2], the AUC/Dose turned out to be 0.16 ng·h/mL/µg/kg; the AUC was determined as 134.84 ng·h/mL; the Tmax – broadly, the time at which the peak concentration occurs – came out at 4.98 min; the bioavailability (as a rule, the share of a dose that reaches the circulation, judged against a reference dose that is usually intravenous) came to 100%. In data set [2], the half-life is 85.2 min and the highest level (Cmax) was 90.6 ng/mL.
In data set [1] (0.269 mg/Kg), `CC(C)(C)n1nc(-c2cccc3ccccc23)c2c(N)ncnc21` [1-Na-PP1 (Control), 1-tert-butyl-3-naphthalen-1-yl-1H-pyrazolo[3,4-d]pyrimidin-4-ylamine] showed an AUC/Dose of 0.12 ng·h/mL/µg/kg, a T½ of 27.6 min, an AUC of 32.14 ng·h/mL and a clearance of 133 mL/min/kg. For the same molecule, the Vd in data set [1] (0.269 mg/Kg) worked out at 5.3 L/kg. In addition, in data set [2], the AUC/Dose stood at 0.13 ng·h/mL/µg/kg, the exposure (AUC) worked out at 99.37 ng·h/mL, the Tmax amounted to 4.98 min and the bioavailability turned out to be 100%. In data set [2], the half-life is 90.6 min and the highest level (Cmax) was 55 ng/mL.
